{"source": "paper PMC9182199", "about": "“Borylated 2,3,4,5-Tetrachlorophthalimide and Their 2,3,4,5-Tetrachlorobenzamide Analogues: Synthesis, Their Glycosidase Inhibition and Anticancer Properties in View to Boron Neutron Capture Therapy” (Molecules, 2022)", "key": {"[1]": {"system": "bovine kidney N-acetyl-β-glucosaminidase", "experiment": "Glycosidase inhibition, laboratory 2: N-acetyl-β-glucosaminidase", "type": "biochemical", "details": "water", "procedure": "(§1) All enzymes and para-nitrophenyl substrates were purchased from Sigma. Enzymes were assayed at 27 °C in 0.1 M citric acid/0.2 M disodium hydrogen phosphate buffers at the optimum pH for the enzyme. The incubation mixture consisted of 10 μL enzyme solution, 10 μL of 1 mg/mL aqueous solution of extract and 50 μL of the appropriate 5 mM para-nitrophenyl substrate made up in buffer at the optimum pH for the enzyme. The reactions were stopped by addition of 70 μL 0.4 M glycine (pH 10.4) during the exponential phase of the reaction, which had been determined at the beginning using uninhibited assays in which water replaced inhibitor. Final absorbances were read at 405 nm using a Versamax microplate reader (Molecular Devices). Assays were carried out in triplicate, and the values given are means of the three replicates per assay. All reactions run in water."}, "[2]": {"system": "rat intestinal maltase α-glucosidase", "experiment": "Glycosidase inhibition, laboratory 1: rat intestinal maltase", "type": "biochemical", "details": "rat intestinal maltase; 10 μM; methanol", "excerpt": "(§2) The enzymes α-glucosidase (from yeast), β-glucosidases (from almond and bovine liver), α-galactosidase (from coffee beans), β-galactosidase (from bovine liver), α-mannosidase (from Jack bean), β-mannosidase (from snail), α-L-rhamnosidase (from Penicillium decumbens), α-L-fucosidase (from bovine kidney), trehalase (from porcine kidney), β-glucuronidases (from E. coli and bovine liver), amyloglucosidase (from A. niger), para-nitrophenyl glycosides, and various disaccharides were purchased from Sigma-Aldrich Co (St Louis, MO, USA).\n(§3) Brush border membranes were prepared from the rat small intestine according to the method of Kessler et al. and were assayed at pH 6.8 for rat intestinal maltase using maltose. For rat intestinal maltase, porcine kidney trehalase, and A. niger amyloglucosidase activities, the reaction mixture contained 25 mM maltose and the appropriate amount of enzyme, and the incubations were performed for 10–30 min at 37 °C. The reaction was stopped by heating at 100 °C for 3 min. After centrifugation (600× g; 10 min), the resulting reaction mixture was added to the Glucose CII-test Wako (Wako Pure Chemical Ind., Osaka, Japan). The absorbance at 505 nm was measured to determine the amount of the released D-glucose. Other glycosidase activities were determined using an appropriate para-nitrophenyl glycoside as substrate at the optimum pH of each enzyme. The reaction mixture contained 2 mM of the substrate and the appropriate amount of enzyme. The reaction was stopped by addition of 400 mM Na2CO3. The released para-nitrophenol was measured spectrometrically at 400 nm. All reactions run in methanol."}, "SJ-G2": {"system": "SJ-G2", "experiment": "MTT cell growth inhibition: SJ-G2", "type": "cell-based", "details": "SJ-G2 glioblastoma, 72 h, read-out: Percentage (%) Cell Growth Inhibition in response to 25 µM of Drug", "procedure": "(§4) All test agents were prepared as stock solutions (20 mM) in dimethyl sulfoxide (DMSO) and stored at −20 °C. Cell lines used in the study included HT29 (colorectal carcinoma); U87, SJ-G2, (glioblastoma); MCF-7, (breast carcinoma); A2780 (ovarian carcinoma); H460 (lung carcinoma); A431 (skin carcinoma); Du145 (prostate carcinoma); BE2-C (neuroblastoma); MiaPaCa-2 (pancreatic carcinoma); and SMA560 (spontaneous murine astrocytoma), together with the one non-tumour-derived normal breast cell line (MCF10A). All cell lines were incubated in a humidified atmosphere 5% CO2 at 37 °C. The cancer cell lines were maintained in Dulbecco’s modified Eagle’s medium (DMEM; Sigma, Australia) supplemented with foetal bovine serum (10%), sodium pyruvate (10 mM), penicillin (100 IUmL^−1), streptomycin (100 µg mL^−1) and L-glutamine (2 mM).\n(§5) Growth inhibition was determined by plating cells in duplicate in medium (100 µL) at a density of 2500–4000 cells per well in 96-well plates. On day 0 (24 h after plating), when the cells were in logarithmic growth, medium (100 µL) with or without the test agent was added to each well. After 72 h drug exposure, growth inhibitory effects were evaluated using the MTT (3-(4,5-dimethyltiazol-2-yl)-2,5-diphenyltetrazolium bromide) assay and absorbance read at 540 nm. The percentage growth inhibition was calculated at a fixed concentration of 25 µM, based on the difference between the optical density values on day 0 and those at the end of drug exposure. Each data point is the mean ± the standard error of the mean (SEM) calculated from three replicates which were performed on separate occasions and separate cell line passages."}, "rice α-glucosidase": {"target": "rice α-glucosidase (Oryza sativa subsp. japonica, UniProt Q653V7)", "sequence (Q653V7 34-885)": "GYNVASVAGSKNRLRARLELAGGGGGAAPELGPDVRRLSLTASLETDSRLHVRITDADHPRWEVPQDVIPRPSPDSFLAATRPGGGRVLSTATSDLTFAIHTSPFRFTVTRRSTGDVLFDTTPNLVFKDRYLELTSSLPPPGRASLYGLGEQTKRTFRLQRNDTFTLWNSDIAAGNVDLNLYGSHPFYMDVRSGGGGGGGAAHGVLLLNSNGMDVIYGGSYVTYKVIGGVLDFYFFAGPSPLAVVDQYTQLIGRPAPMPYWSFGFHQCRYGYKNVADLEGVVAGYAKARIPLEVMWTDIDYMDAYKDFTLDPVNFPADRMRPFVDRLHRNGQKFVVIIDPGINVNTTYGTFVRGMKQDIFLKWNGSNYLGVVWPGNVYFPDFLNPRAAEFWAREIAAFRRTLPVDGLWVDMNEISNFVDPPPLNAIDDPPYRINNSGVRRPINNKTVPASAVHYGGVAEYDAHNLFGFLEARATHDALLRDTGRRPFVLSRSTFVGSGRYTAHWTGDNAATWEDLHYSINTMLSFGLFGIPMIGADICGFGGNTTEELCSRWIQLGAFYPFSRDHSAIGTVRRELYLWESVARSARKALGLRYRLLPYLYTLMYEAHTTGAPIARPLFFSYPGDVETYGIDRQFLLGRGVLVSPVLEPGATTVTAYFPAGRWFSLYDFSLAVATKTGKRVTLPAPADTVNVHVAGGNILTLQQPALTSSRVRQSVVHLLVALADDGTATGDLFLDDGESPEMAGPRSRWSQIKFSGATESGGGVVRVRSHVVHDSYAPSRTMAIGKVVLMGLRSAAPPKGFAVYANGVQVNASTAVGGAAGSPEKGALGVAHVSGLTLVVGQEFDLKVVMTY", "experiment": "Glycosidase inhibition, laboratory 1: rice α-glucosidase", "type": "biochemical", "details": "10 μM, methanol"}, "HT29": {"system": "HT29", "experiment": "MTT cell growth inhibition: HT29", "type": "cell-based", "details": "Homo sapiens, HT-29, HT29 colon carcinoma, 72 h, read-out: Percentage (%) Cell Growth Inhibition in response to 25 µM of Drug", "procedure": "as §4, §5"}, "porcine kidney trehalase": {"system": "porcine kidney trehalase", "experiment": "Glycosidase inhibition, laboratory 1: trehalase", "type": "biochemical", "details": "100 μM, methanol", "excerpt": "as §2, §3"}, "[3]": {"system": "Penicillium decumbens α-L-rhamnosidase", "experiment": "Glycosidase inhibition, laboratory 1: α-L-rhamnosidase", "type": "biochemical", "details": "10 μM, methanol", "excerpt": "as §2, §3"}, "U87": {"system": "U87", "experiment": "MTT cell growth inhibition: U87", "type": "cell-based", "details": "Homo sapiens, U-87 MG, U87 glioblastoma", "procedure": "as §4, §5"}, "yeast α-glucosidase": {"target": "T1, yeast α-glucosidase (Saccharomyces cerevisiae, UniProt P53341)", "T1 construct": "purchased Sigma", "T1 sequence (P53341 whole entry)": "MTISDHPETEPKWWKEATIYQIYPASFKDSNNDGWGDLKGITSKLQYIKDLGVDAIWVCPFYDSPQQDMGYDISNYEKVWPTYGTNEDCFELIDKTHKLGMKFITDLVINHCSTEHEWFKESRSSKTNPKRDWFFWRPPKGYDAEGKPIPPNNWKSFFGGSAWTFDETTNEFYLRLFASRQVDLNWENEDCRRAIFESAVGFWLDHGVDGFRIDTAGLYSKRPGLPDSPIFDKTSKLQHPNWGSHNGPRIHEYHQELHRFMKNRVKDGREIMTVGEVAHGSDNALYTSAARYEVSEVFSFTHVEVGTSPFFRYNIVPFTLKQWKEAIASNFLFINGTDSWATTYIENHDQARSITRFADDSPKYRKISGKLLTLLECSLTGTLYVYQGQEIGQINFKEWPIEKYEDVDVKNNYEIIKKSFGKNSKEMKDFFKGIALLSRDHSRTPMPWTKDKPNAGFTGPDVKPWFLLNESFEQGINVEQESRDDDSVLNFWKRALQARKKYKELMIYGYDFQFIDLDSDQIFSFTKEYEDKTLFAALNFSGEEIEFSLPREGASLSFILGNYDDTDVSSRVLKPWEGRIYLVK", "experiment": "Glycosidase inhibition, laboratory 1: yeast α-glucosidase", "type": "biochemical", "details": "10 μM, methanol", "excerpt": "as §2, §3"}, "[4]": {"system": "bovine liver β-galactosidase", "experiment": "Glycosidase inhibition, laboratory 1: bovine liver β-galactosidase", "type": "biochemical", "details": "10 μM, methanol", "excerpt": "as §2, §3"}, "[5]": {"system": "bovine liver β-glucuronidase", "experiment": "Glycosidase inhibition, laboratory 2: bovine liver β-glucuronidase", "type": "biochemical", "details": "water", "procedure": "as §1"}, "[6]": {"experiment": "Appearance of the 1 mg/mL aqueous solution tested", "type": "physicochemical", "details": "1 mg/mL in water"}, "[7]": {"system": "bovine liver β-glucuronidase", "experiment": "Glycosidase inhibition, laboratory 1: bovine liver β-glucuronidase", "type": "biochemical", "details": "10 μM, methanol", "excerpt": "as §2, §3"}}}
{"compound": "CC1(C)OB(c2cccc(CN3C(=O)c4c(Cl)c(Cl)c(Cl)c(Cl)c4C3=O)c2)OC1(C)C", "note": "[meta 3, 4,5,6,7-Tetrachloro-2-(3-(4,4,5,5-tetramethyl-1,3,2-dioxaborolan-2-yl)benzyl)isoindoline-1,3-dione]", "values": [{"measurement": "% inhibition at ~400 μM", "setting": "[1]", "result": 17.1, "unit": "%"}, {"measurement": "inhibition % at 10 μM", "setting": "[2]", "result": "^cNI ^d (22.1%)"}, {"measurement": "inhibition at 25 µM", "setting": "SJ-G2", "result": "35 ± 4", "unit": "%"}, {"measurement": "inhibition at 10 µM", "setting": "rice α-glucosidase", "result": 5.1, "unit": "%"}, {"measurement": "inhibition at 25 µM", "setting": "HT29", "result": "53 ± 3", "unit": "%"}, {"measurement": "inhibition % at 100 μM", "setting": "porcine kidney trehalase", "result": "^aNI ^b (0%)"}, {"measurement": "inhibition % at 10 μM", "setting": "[3]", "result": "^cNI ^d (0%)"}, {"measurement": "GI50", "setting": "U87; read-out: GI50 = Concentration (µM) that inhibits cell growth by 50%, dose response", "result": "19 ± 1.5", "unit": "µM"}, {"measurement": "inhibition at 25 µM", "setting": "U87; 25 µM, 72 h, MTT, read-out: Percentage (%) Cell Growth Inhibition in response to 25 µM of Drug", "result": "70 ± 8", "unit": "%"}, {"measurement": "inhibition at 10 µM", "setting": "yeast α-glucosidase", "result": 0, "unit": "%"}, {"measurement": "inhibition % at 10 μM", "setting": "[4]", "result": "^cNI ^d (12.4%)"}, {"measurement": "% inhibition at ~400 μM", "setting": "[5]", "result": 5.8, "unit": "%"}, {"measurement": "Appearance of the 1 mg/mL Aqueous Solution Tested", "setting": "[6]", "result": "opaque suspension"}, {"measurement": "inhibition % at 10 μM", "setting": "[7]", "result": "^cNI ^d (5.7%)"}]}
